Measured values as given in ChEMBL document CHEMBL3526101, “Discovery and characterization of novel, potent, and selective cytochrome P450 2J2 inhibitors” (Drug Metab Dispos, 2013).

T1: Cytochrome P450 2J2 (Homo sapiens, UniProt P51589)
T1 sequence (P51589 whole entry): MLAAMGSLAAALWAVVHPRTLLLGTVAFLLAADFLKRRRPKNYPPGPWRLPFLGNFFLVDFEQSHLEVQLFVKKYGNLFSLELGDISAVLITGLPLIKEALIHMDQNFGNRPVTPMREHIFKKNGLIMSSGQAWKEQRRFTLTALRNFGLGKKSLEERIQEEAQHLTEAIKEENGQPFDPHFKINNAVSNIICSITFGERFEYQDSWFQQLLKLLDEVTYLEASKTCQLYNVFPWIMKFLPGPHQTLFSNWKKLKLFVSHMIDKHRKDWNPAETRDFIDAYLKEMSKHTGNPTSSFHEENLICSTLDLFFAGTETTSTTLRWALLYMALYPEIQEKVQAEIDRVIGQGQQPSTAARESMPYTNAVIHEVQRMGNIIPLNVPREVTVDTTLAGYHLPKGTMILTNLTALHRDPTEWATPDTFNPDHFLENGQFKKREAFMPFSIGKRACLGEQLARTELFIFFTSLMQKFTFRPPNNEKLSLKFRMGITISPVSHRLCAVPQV

T2: Cytochrome P450 1A2 (Homo sapiens, UniProt P05177)
T2 sequence (P05177 whole entry): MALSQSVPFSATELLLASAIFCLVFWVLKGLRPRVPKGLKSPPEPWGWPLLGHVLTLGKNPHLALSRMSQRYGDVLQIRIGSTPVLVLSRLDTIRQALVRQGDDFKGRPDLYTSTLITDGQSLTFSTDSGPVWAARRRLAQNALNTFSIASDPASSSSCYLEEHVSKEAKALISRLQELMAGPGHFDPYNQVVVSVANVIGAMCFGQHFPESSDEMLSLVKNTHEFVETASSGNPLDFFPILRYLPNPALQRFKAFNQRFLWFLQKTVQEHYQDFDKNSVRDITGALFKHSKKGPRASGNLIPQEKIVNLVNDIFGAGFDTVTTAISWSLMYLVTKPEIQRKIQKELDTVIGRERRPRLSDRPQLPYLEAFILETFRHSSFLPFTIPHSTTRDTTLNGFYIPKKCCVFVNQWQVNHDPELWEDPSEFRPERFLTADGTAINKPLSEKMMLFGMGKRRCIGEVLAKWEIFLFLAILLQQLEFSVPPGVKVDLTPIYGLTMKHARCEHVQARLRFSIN

B1: Cytochrome P450 2J2 (Homo sapiens) (protein)
chain: MLAAMGSLAAALWAVVHPRTLLLGTVAFLLAADFLKRRRPKNYPPGPWRLPFLGNFFLVDFEQSHLEVQLFVKKYGNLFSLELGDISAVLITGLPLIKEALIHMDQNFGNRPVTPMREHIFKKNGLIMSSGQAWKEQRRFTLTALRNFGLGKKSLEERIQEEAQHLTEAIKEENGQPFDPHFKINNAVSNIICSITFGERFEYQDSWFQQLLKLLDEVTYLEASKTCQLYNVFPWIMKFLPGPHQTLFSNWKKLKLFVSHMIDKHRKDWNPAETRDFIDAYLKEMSKHTGNPTSSFHEENLICSTLDLFFAGTETTSTTLRWALLYMALYPEIQEKVQAEIDRVIGQGQQPSTAARESMPYTNAVIHEVQRMGNIIPLNVPREVTVDTTLAGYHLPKGTMILTNLTALHRDPTEWATPDTFNPDHFLENGQFKKREAFMPFSIGKRACLGEQLARTELFIFFTSLMQKFTFRPPNNEKLSLKFRMGITISPVSHRLCAVPQV

What was measured:
Cytochrome P450 2J2 [1] = target: T1, Cytochrome P450 2J2
Cytochrome P450 2D6 = Cytochrome P450 2D6 (Homo sapiens, UniProt P10635)
Cytochrome P450 2C9 = Cytochrome P450 2C9 (Homo sapiens, UniProt P11712)
Cytochrome P450 2C19 = Cytochrome P450 2C19 (Homo sapiens, UniProt P33261)
Cytochrome P450 1A2 = target: T2, Cytochrome P450 1A2
Cytochrome P450 3A4 = Cytochrome P450 3A4 (Homo sapiens, UniProt P08684)
Description: Inhibition of CYP3A4 in human liver microsomes using testosterone substrate by LC-MS/MS method

[2] = Metabolic stability in human liver microsomes at 1 uM after 30 mins by LC-MS/MS method; assay type: ADME; conditions: read-out: Stability
Cytochrome P450 2J2 [3] = target: T1, Cytochrome P450 2J2; assay: Drug metabolism assessed as human recombinant CYP2J2-mediated intrinsic clearance assessed per pmol protein after 30 mins; assay type: ADME; conditions: recombinant enzyme, 0.5 h
[4] = Tmax in human; assay type: ADME, organism-based; conditions: in vivo
[5] = substrate: COc1ccc(CCN2CCC(Nc3nc4ccccc4n3Cc3ccc(F)cc3)CC2)cc1; assay: Activity of human recombinant CYP2J2 assessed as compound O-demethylation; assay type: ADME

Cytochrome P450 2D6, sequence (P10635 whole entry): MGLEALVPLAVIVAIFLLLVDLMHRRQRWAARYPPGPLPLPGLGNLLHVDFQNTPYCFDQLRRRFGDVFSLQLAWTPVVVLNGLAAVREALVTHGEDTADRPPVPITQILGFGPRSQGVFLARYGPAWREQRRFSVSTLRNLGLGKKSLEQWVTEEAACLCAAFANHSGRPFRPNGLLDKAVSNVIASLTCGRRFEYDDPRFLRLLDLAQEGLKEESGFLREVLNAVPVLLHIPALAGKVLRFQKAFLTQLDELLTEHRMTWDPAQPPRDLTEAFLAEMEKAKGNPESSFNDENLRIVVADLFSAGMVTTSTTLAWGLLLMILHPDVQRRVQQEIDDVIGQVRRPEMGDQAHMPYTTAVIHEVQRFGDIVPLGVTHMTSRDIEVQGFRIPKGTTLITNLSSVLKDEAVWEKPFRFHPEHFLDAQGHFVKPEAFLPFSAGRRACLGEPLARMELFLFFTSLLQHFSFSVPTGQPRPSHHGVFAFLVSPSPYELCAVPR
Cytochrome P450 2C19, sequence (P33261 whole entry): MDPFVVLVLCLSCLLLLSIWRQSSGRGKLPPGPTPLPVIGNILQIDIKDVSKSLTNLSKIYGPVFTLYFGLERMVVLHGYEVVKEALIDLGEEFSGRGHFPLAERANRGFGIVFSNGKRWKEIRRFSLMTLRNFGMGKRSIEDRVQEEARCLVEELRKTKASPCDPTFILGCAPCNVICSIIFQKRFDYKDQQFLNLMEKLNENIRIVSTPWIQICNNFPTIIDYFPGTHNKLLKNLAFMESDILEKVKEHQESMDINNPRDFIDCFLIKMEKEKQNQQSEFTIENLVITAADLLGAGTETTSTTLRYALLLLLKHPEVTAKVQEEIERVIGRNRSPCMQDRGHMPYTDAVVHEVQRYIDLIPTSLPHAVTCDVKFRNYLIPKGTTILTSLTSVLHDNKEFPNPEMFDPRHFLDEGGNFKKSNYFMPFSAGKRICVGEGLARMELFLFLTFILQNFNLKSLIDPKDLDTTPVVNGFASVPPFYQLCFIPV
Cytochrome P450 2C9, sequence (P11712 whole entry): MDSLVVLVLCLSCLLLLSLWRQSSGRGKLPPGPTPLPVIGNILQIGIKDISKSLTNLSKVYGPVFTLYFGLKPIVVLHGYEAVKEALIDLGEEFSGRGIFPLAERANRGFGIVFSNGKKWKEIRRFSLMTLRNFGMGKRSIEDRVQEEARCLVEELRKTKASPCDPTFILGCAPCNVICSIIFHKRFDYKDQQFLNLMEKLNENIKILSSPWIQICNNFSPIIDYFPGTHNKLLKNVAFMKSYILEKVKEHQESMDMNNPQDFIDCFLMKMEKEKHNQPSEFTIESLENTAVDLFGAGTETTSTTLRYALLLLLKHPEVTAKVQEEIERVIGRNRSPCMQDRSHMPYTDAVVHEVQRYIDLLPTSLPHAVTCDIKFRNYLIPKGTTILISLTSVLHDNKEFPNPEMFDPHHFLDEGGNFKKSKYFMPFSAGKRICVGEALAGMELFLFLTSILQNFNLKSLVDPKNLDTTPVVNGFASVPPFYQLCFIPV
Cytochrome P450 3A4, sequence (P08684 whole entry): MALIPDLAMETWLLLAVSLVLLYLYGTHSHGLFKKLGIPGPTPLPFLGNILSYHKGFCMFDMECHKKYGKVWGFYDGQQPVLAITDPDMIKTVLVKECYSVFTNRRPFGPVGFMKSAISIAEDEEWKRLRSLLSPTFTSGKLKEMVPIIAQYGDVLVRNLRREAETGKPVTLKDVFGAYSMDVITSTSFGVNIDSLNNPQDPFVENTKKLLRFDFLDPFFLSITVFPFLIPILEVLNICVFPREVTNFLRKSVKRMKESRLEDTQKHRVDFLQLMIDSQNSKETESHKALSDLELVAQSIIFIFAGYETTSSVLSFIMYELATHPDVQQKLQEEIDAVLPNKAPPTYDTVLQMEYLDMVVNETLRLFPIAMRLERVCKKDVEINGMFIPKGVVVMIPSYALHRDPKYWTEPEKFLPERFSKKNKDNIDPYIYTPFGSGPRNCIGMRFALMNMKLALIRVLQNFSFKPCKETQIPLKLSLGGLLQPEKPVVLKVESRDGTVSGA

Row | Molecule | IC50 (Cytochrome P450 2J2 [1]) [µM] | IC50 (Cytochrome P450 1A2) [µM] | other results
1 | CN[C@H]1CC[C@@H](c2ccc(Cl)c(Cl)c2)c2ccccc21 [SERTRALINE] | 18.5 | 29.7 | IC50 (Cytochrome P450 2D6): 2.88 µM; IC50 (Cytochrome P450 2C9): > 50 µM; IC50 (Cytochrome P450 2C19): 22.5 µM
2 | COCCc1ccc(OCC(O)CNC(C)C)cc1 (stereo unspecified) [METOPROLOL] | – | > 50 | IC50 (Cytochrome P450 3A4): > 50 µM
3 | C[C@]12C=CC(=O)C=C1CC[C@H]1[C@@H]3C[C@@H](O)[C@](O)(C(=O)CO)[C@@]3(C)C[C@H](O)[C@@]12F [TRIAMCINOLONE] | 9.47 | > 50 | IC50 (Cytochrome P450 2D6): > 50 µM; IC50 (Cytochrome P450 2C9): > 50 µM
4 | CC(=O)Nc1ccc(O)cc1 [ACETAMINOPHEN] | > 50 | – | –
5 | CN1CCC[C@@H]1Cc1c[nH]c2ccc(CCS(=O)(=O)c3ccccc3)cc12 | > 50 | – | –
6 | C[C@]12C=CC(=O)C=C1CC[C@@H]1[C@@H]2[C@@H](O)C[C@@]2(C)[C@H]1CC[C@]2(O)C(=O)CO [PREDNISOLONE] | > 50 | – | –
7 | CC(C)COCC(CN(Cc1ccccc1)c1ccccc1)N1CCCC1 (stereo unspecified) [BEPRIDIL] | 11.5 | > 50 | IC50 (Cytochrome P450 2D6): > 50 µM
8 | CC[C@H]1OC(=O)[C@H](C)[C@@H](O[C@H]2C[C@@](C)(OC)[C@@H](O)[C@H](C)O2)[C@H](C)[C@@H](O[C@@H]2O[C@H](C)C[C@H](N(C)C)[C@H]2O)[C@](C)(O)C[C@@H](C)C(=O)[C@H](C)[C@@H](O)[C@]1(C)O [ERYTHROMYCIN] | > 50 | – | –
9 | CN1C(C(=O)Nc2ccccn2)=C(O)c2ccccc2S1(=O)=O [PIROXICAM] | > 50 | – | –
10 | COCC(=O)O[C@]1(CCN(C)CCCc2nc3ccccc3[nH]2)CCc2cc(F)ccc2[C@@H]1C(C)C [MIBEFRADIL] | 2.14 | > 50 | IC50 (Cytochrome P450 2D6): 0.84 µM; IC50 (Cytochrome P450 2C9): 28.4 µM; IC50 (Cytochrome P450 2C19): 1.32 µM
11 | Cc1cccc(Nc2ccccc2C(=O)O)c1C [MEFENAMIC ACID] | > 50 | – | –
12 | Cc1c(OCC(F)(F)F)ccnc1C[S+]([O-])c1nc2ccccc2[nH]1 (stereo unspecified) [LANSOPRAZOLE] | > 50 | – | –
13 | COc1ccc(CCN(C)CCCC(C#N)(c2ccc(OC)c(OC)c2)C(C)C)cc1OC (stereo unspecified) | – | > 50 | –
14 | CCN(CC)Cc1cc(Nc2ccnc3cc(Cl)ccc23)ccc1O [AMODIAQUINE] | – | – | IC50 (Cytochrome P450 3A4): > 50 µM
15 | CO/N=C(\C(=O)N[C@@H]1C(=O)N2C(C(=O)O)=C(CSc3nc(=O)c(=O)[nH]n3C)CS[C@H]12)c1csc(N)n1 [CEFTRIAXONE] | 27.4 | – | –
16 | CC1(C)S[C@@H]2[C@H](NC(=O)[C@H](N)c3ccc(O)cc3)C(=O)N2[C@H]1C(=O)O [AMOXICILLIN] | > 50 | – | –
17 | CCCc1nc2c(C)cc(-c3nc4ccccc4n3C)cc2n1Cc1ccc(-c2ccccc2C(=O)O)cc1 | – | > 50 | remaining at 0.5 h, 1 µM [2]: 97.7%; IC50 (Cytochrome P450 2D6): > 50 µM; IC50 (Cytochrome P450 2C9): 4.78 µM; IC50 (Cytochrome P450 2C19): > 50 µM
18 | CN(C)CCCN1c2ccccc2CCc2ccccc21 [IMIPRAMINE] | > 50 | – | –
19 | C[C@@H]1C[C@H]2[C@@H]3CCC4=CC(=O)C=C[C@]4(C)[C@@]3(F)[C@@H](O)C[C@]2(C)[C@@]1(O)C(=O)CO [DEXAMETHASONE] | > 50 | – | –
20 | COc1ccc(CCN2CCC(Nc3nc4ccccc4n3Cc3ccc(F)cc3)CC2)cc1 [ASTEMIZOLE] | – | – | CL (Cytochrome P450 2J2 [3]): 3.05 µL/min
21 | COc1ccc2[nH]c([S+]([O-])Cc3ncc(C)c(OC)c3C)nc2c1 (stereo unspecified) [OMEPRAZOLE] | > 50 | – | –
22 | Nc1ccc(S(=O)(=O)Nc2ccnn2-c2ccccc2)cc1 [SULFAPHENAZOLE] | > 50 | – | –
23 | CCCc1nc(C(C)(C)O)c(C(=O)O)n1Cc1ccc(-c2ccccc2-c2nnn[nH]2)cc1 [OLMESARTAN] | > 50 | – | –
24 | CCc1oc2ccccc2c1C(=O)c1cc(Br)c(O)c(Br)c1 [BENZBROMARONE] | 4.26 | 33.1 | IC50 (Cytochrome P450 2D6): > 50 µM
25 | Fc1ccc(C(c2ccc(F)cc2)N2CCN(C/C=C/c3ccccc3)CC2)cc1 [FLUNARIZINE] | – | > 50 | Tmax [4]: 4 h; remaining at 0.5 h, 1 µM [2]: 83.8%; IC50 (Cytochrome P450 2C9): > 50 µM; IC50 (Cytochrome P450 2C19): > 50 µM
26 | CCn1cc(C(=O)O)c(=O)c2cc(F)c(N3CCNCC3)cc21 [NORFLOXACIN] | – | > 50 | IC50 (Cytochrome P450 2C9): > 50 µM
27 | COc1ccc2c(c1)[C@]13CCCC[C@@H]1[C@H](C2)N(C)CC3 [DEXTROMETHORPHAN] | > 50 | – | –
28 | NC(=O)N1c2ccccc2C=Cc2ccccc21 [CARBAMAZEPINE] | > 50 | – | –
29 | C=CCc1ccccc1OCC(O)CNC(C)C (stereo unspecified) [ALPRENOLOL] | > 50 | – | –
30 | B1 | – | – | Km [5]: 0.09 µM; Vmax [5]: 0.000339 µmol/min
